# Data taken from US5057613A, “Novel thione dopamine beta hydroxylase inhibitors” (Merrell Dow Pharmaceuticals, priority 1987, dated 1991).
# pIC50: −log10 of the molar value.
# How the values were obtained:
# [1] = tested on: spontaneously hypertensive rats (SHR's); assay: in vivo antihypertensive effect, blood pressure in spontaneously hypertensive rats; settings: 50 mg/kg, IP, Mean Difference ± Standard Deviation
# Experimental: The ability of the compounds of this invention to lower blood pressure can be determined in vivo using spontaneously hypertensive rats (SHR's) according to standard and well known procedures. The test compound is administered intraperitoneally (ip) to rats and the blood pressure monitored continuously. Since DBH is a major enzyme in the synthetic pathway of the catecholamines, it would be expected that the presence of an inhibitor would act to decrease the amount of catecholamines produced, and thereby have an antihypertensive effect. The results of the testing for this antihypertensive effect are shown in Table I (MBP is mean blood pressure).
# [2] = molecular target: T1, dopamine beta-hydroxylase (DBH) (Bos taurus, UniProt P15101); assay: in vitro inhibition of dopamine beta-hydroxylase (conversion of tyramine to octopamine, oxygen uptake by polarographic electrode); format: biochemical; settings: pH 5, 20-40° C, preferably 37° C
# T1 sequence (P15101 1-610): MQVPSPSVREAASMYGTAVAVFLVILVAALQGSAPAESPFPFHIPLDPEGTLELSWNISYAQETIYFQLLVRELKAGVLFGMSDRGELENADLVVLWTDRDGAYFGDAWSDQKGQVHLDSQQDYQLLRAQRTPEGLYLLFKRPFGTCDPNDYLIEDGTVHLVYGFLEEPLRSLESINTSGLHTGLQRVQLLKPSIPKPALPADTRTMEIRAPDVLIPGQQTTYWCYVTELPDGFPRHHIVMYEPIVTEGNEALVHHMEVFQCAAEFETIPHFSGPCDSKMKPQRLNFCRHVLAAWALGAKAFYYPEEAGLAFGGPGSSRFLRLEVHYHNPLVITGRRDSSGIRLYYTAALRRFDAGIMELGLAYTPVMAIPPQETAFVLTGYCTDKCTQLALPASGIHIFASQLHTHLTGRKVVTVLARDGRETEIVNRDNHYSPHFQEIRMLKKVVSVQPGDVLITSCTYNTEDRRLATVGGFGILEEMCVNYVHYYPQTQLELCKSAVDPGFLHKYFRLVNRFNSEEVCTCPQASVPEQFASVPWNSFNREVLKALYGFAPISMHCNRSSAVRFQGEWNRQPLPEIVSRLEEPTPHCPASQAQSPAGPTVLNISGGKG
# Experimental: The DBH inhibitory compounds of this invention can readily be determined in vitro by standard and well known procedures for assaying conversion of tyramine to octopamine in the presence of dopamine beta-hydroxylase (DBH). Enzymatic oxygenation by DBH is determined in aqueous solution in the presence of molecular oxygen, an electron donor such as ascorbate, and the necessary cofactors for the enzyme at pH of 5 and a temperature of 20°-40° C., preferably 37° C. The test compound is added at the desired concentration, and the system is incubated. Activity is determined by measuring the oxygen uptake using a polarographic electrode and an oxygen monitor by the method of S. May, et al., J. Biol. Chem. 256, 2258 (1981). Inhibition is given in molar concentration of compound at which DBH activity was halved (IC50) when the test compounds were tested according to the above described procedure. The IC50 (expressed in micromolar units) data of some of the compounds of this invention are expressed in Table I.
# [3] = tested on: DBH; assay: in vivo DBH inhibition, heart dopamine level in spontaneously hypertensive rats; settings: 50 mg/kg, IP, 6 hours post dose in SHR's; Control 0.015 ± .002; p < .001
# Experimental: The compounds of this invention may also be tested for their in vivo DBH inhibiting property according to the procedure of Felice, Felice and Kessinger, J. Neurochem., 31, 1461-1465 (1978) wherein the effects on peripheral dopamine and norepinephrine levels are determined. In this test spontaneously hypertensive rats are dosed (i.p.) at 50 mg per kilogram of body weight and sacrificed six hours later. Average results, expressed in micrograms of dopamine (DA) per gram of heart tissue are determined with the difference between the control and the treated rats being the in vivo (DBH) inhibitory effect of the test compound.
pIC50 [2],SMILES,Max Change MBP (mean blood pressure) [1],"Heart DA (dopamine per gram of heart tissue), treated [3]"
6.92,"S=c1[nH]ccn1CCc1cccs1 [Compound 1, 1,3-Dihydro-1-[2-(2-thienyl)ethyl]-2H-imidazole-2-thione]",-45 ± 17 mmHg,0.038 ± .003 µg/g
5.73,"Sc1nccn1CCCc1cccs1 [Compound 2, 1,3-Dihydro-1-[3-(2-thienyl)propyl]-2H-imidazole-2-thione]",–,–
